Measured values from patent US4667027A, “Cephem compounds and their production” (Takeda Chemical Industries, Ltd., priority 1984, dated 1987).
Converted amounts (≈) assume the structure as drawn.

system: Escherichia coli PG8; assay: β-lactamase stability test, growth inhibition zone, no β-lactamase added; format: cell-based; details: β-lactamase not added; test organism Escherichia coli PG8; drug 100 μg/ml; nutrient agar pH 7.0; read-out: diameter of growth inhibition zone
From the text: (§1) TAN-591A, B, C are stable to various β-lactamases. The results of stability test of the antibiotic to two β-lactamases employing Escherichia coli PG8 as a test organism are shown in Table 5. […]

| Compound | zone of inhibition at 100 µg/mL |
| --- | --- |
| CC(N)C(=O)NC(CO)C(=O)NC(CO)C(=O)NC(CCCNC(=N)N)C(O)CC(=O)OCC1=C(C(=O)O)N2C(=O)C(NC=O)(NC(=O)CCCC(N)C(=O)O)C2SC1 (stereo not drawn) [TAN-592C] | 29 mm |

system: Staphylococcus aureus FDA 209P; assay: Antimicrobial spectrum, minimal inhibitory concentration (agar dilution); format: cell-based; details: FDA209P, hydrochloride, inoculum 1 loopful of about 10^6/ml
From the text: (§2) *Culture medium: 17.5 g of Bacto antibiotic medium 3 (Difco), 5 g of Bact
(§3) yeast extract (Difco), 20 g of Bacto agar (Difco), 1 l of distilled water
(§4) The amount of inoculated microorganism: 1 loopful of about 10^6 /ml o
(§5) microorganism suspension.
(§6) *Medium: Bacto antibiotic medium (Difco) 17.5 g, Bacto yeast extract
(§7) (Difco) 5 g, Bacto agar (Difco) 20 g, distilled water 1 l, pH not

| Compound | MIC |
| --- | --- |
| CC(N)C(=O)NC(CO)C(=O)NC(CO)C(=O)NC(CCCNC(=N)N)C(O)CC(=O)OCC1=C(C(=O)O)N2C(=O)C(NC=O)(NC(=O)CCCC(N)C(=O)O)C2SC1 (stereo not drawn) [TAN-592C] | > 50 µg/mL |

system: Salmonella typhimurium IFO 12529; assay: as above; format: cell-based; details: Salmonella enterica, hydrochloride, inoculum 1 loopful of about 10^6/ml
From the text: as §2, §3, §4, §5, §6, §7

| Compound | MIC |
| --- | --- |
| CC(N)C(=O)NC(CO)C(=O)NC(CO)C(=O)NC(CCCNC(=N)N)C(O)CC(=O)OCC1=C(C(=O)O)N2C(=O)C(NC=O)(NC(=O)CCCC(N)C(=O)O)C2SC1 (stereo not drawn) [TAN-592C] | 25 µg/mL (≈ 29 µM) |

system: Klebsiella pneumoniae IFO 3317; assay: as above; format: cell-based; details: IFO3317, hydrochloride, inoculum 1 loopful of about 10^6/ml
From the text: as §2, §3, §4, §5, §6, §7

| Compound | MIC |
| --- | --- |
| CC(N)C(=O)NC(CO)C(=O)NC(CO)C(=O)NC(CCCNC(=N)N)C(O)CC(=O)OCC1=C(C(=O)O)N2C(=O)C(NC=O)(NC(=O)CCCC(N)C(=O)O)C2SC1 (stereo not drawn) [TAN-592C] | 50 µg/mL (≈ 58 µM) |

system: Bacillus subtilis NIHJ PCI 219; assay: as above; format: cell-based; details: hydrochloride, inoculum 1 loopful of about 10^6/ml
From the text: as §2, §3, §4, §5, §6, §7

| Compound | MIC |
| --- | --- |
| CC(N)C(=O)NC(CO)C(=O)NC(CO)C(=O)NC(CCCNC(=N)N)C(O)CC(=O)OCC1=C(C(=O)O)N2C(=O)C(NC=O)(NC(=O)CCCC(N)C(=O)O)C2SC1 (stereo not drawn) [TAN-592C] | 12.5 µg/mL (≈ 14.5 µM) |

system: Escherichia coli NIHJ JC-2; assay: as above; format: cell-based; details: NIHJJC2, hydrochloride, inoculum 1 loopful of about 10^6/ml
From the text: as §2, §3, §4, §5, §6, §7

| Compound | MIC |
| --- | --- |
| CC(N)C(=O)NC(CO)C(=O)NC(CO)C(=O)NC(CCCNC(=N)N)C(O)CC(=O)OCC1=C(C(=O)O)N2C(=O)C(NC=O)(NC(=O)CCCC(N)C(=O)O)C2SC1 (stereo not drawn) [TAN-592C] | 25 µg/mL (≈ 29 µM) |

system: Bacillus megaterium IFO 12108; assay: as above; format: cell-based; details: Priestia megaterium, IFO12108, hydrochloride, inoculum 1 loopful of about 10^6/ml
From the text: as §2, §3, §4, §5, §6, §7

| Compound | MIC |
| --- | --- |
| CC(N)C(=O)NC(CO)C(=O)NC(CO)C(=O)NC(CCCNC(=N)N)C(O)CC(=O)OCC1=C(C(=O)O)N2C(=O)C(NC=O)(NC(=O)CCCC(N)C(=O)O)C2SC1 (stereo not drawn) [TAN-592C] | 12.5 µg/mL (≈ 14.5 µM) |

system: Citrobacter freundii IFO 12681; assay: as above; format: cell-based; details: IFO12681, hydrochloride, inoculum 1 loopful of about 10^6/ml
From the text: as §2, §3, §4, §5, §6, §7

| Compound | MIC |
| --- | --- |
| CC(N)C(=O)NC(CO)C(=O)NC(CO)C(=O)NC(CCCNC(=N)N)C(O)CC(=O)OCC1=C(C(=O)O)N2C(=O)C(NC=O)(NC(=O)CCCC(N)C(=O)O)C2SC1 (stereo not drawn) [TAN-592C] | > 50 µg/mL |

system: Proteus vulgalis IFO 3988; assay: as above; format: cell-based; details: hydrochloride, inoculum 1 loopful of about 10^6/ml
From the text: as §2, §3, §4, §5, §6, §7

| Compound | MIC |
| --- | --- |
| CC(N)C(=O)NC(CO)C(=O)NC(CO)C(=O)NC(CCCNC(=N)N)C(O)CC(=O)OCC1=C(C(=O)O)N2C(=O)C(NC=O)(NC(=O)CCCC(N)C(=O)O)C2SC1 (stereo not drawn) [TAN-592C] | 25 µg/mL (≈ 29 µM) |

system: Serratia marcescens IFO 12648; assay: as above; format: cell-based; details: IFO12648, hydrochloride, inoculum 1 loopful of about 10^6/ml
From the text: as §2, §3, §4, §5, §6, §7

| Compound | MIC |
| --- | --- |
| CC(N)C(=O)NC(CO)C(=O)NC(CO)C(=O)NC(CCCNC(=N)N)C(O)CC(=O)OCC1=C(C(=O)O)N2C(=O)C(NC=O)(NC(=O)CCCC(N)C(=O)O)C2SC1 (stereo not drawn) [TAN-592C] | 50 µg/mL (≈ 58 µM) |

system: Acinetobacter calcoaceticus IFO 12552; assay: as above; format: cell-based; details: IFO12552, hydrochloride, inoculum 1 loopful of about 10^6/ml
From the text: as §2, §3, §4, §5, §6, §7

| Compound | MIC |
| --- | --- |
| CC(N)C(=O)NC(CO)C(=O)NC(CO)C(=O)NC(CCCNC(=N)N)C(O)CC(=O)OCC1=C(C(=O)O)N2C(=O)C(NC=O)(NC(=O)CCCC(N)C(=O)O)C2SC1 (stereo not drawn) [TAN-592C] | 3.13 µg/mL (≈ 3.63 µM) |

system: Alcaligenes faecalis IFO 13111; assay: as above; format: cell-based; details: IFO13111, hydrochloride, inoculum 1 loopful of about 10^6/ml
From the text: as §2, §3, §4, §5, §6, §7

| Compound | MIC |
| --- | --- |
| CC(N)C(=O)NC(CO)C(=O)NC(CO)C(=O)NC(CCCNC(=N)N)C(O)CC(=O)OCC1=C(C(=O)O)N2C(=O)C(NC=O)(NC(=O)CCCC(N)C(=O)O)C2SC1 (stereo not drawn) [TAN-592C] | 6.25 µg/mL (≈ 7.25 µM) |

system: Pseudomonas aeruginosa IFO 3080; assay: as above; format: cell-based; details: IFO3080, hydrochloride, inoculum 1 loopful of about 10^6/ml
From the text: as §2, §3, §4, §5, §6, §7

| Compound | MIC |
| --- | --- |
| CC(N)C(=O)NC(CO)C(=O)NC(CO)C(=O)NC(CCCNC(=N)N)C(O)CC(=O)OCC1=C(C(=O)O)N2C(=O)C(NC=O)(NC(=O)CCCC(N)C(=O)O)C2SC1 (stereo not drawn) [TAN-592C] | > 50 µg/mL |

system: Brevibacterium thiogenitalis ATCC 19240; assay: as above; format: cell-based; details: Corynebacterium glutamicum, ATCC19240, hydrochloride, inoculum 1 loopful of about 10^6/ml
From the text: as §2, §3, §4, §5, §6, §7

| Compound | MIC |
| --- | --- |
| CC(N)C(=O)NC(CO)C(=O)NC(CO)C(=O)NC(CCCNC(=N)N)C(O)CC(=O)OCC1=C(C(=O)O)N2C(=O)C(NC=O)(NC(=O)CCCC(N)C(=O)O)C2SC1 (stereo not drawn) [TAN-592C] | 6.25 µg/mL (≈ 7.25 µM) |

system: not listed separately; assay: Solubility in solvents; format: physicochemical; details: dimethylsulfoxide, methanol, acetone, ethyl acetate; hydrochloride

| Compound | Solubility |
| --- | --- |
| CC(N)C(=O)NC(CO)C(=O)NC(CO)C(=O)NC(CCCNC(=N)N)C(O)CC(=O)OCC1=C(C(=O)O)N2C(=O)C(NC=O)(NC(=O)CCCC(N)C(=O)O)C2SC1 (stereo not drawn) [TAN-592C] | Sparingly soluble |

same assay, conditions: water, aqueous acetone, aqueous alcohol; hydrochloride

| Compound | Solubility |
| --- | --- |
| CC(N)C(=O)NC(CO)C(=O)NC(CO)C(=O)NC(CCCNC(=N)N)C(O)CC(=O)OCC1=C(C(=O)O)N2C(=O)C(NC=O)(NC(=O)CCCC(N)C(=O)O)C2SC1 (stereo not drawn) [TAN-592C] | Easily soluble |

system: penicillinase; assay: β-lactamase stability test, growth inhibition zone with penicillinase; format: cell-based; details: penicillinase added; test organism Escherichia coli PG8; drug 100 μg/ml; nutrient agar pH 7.0
From the text: as §1

| Compound | diameter of growth inhibition zone |
| --- | --- |
| CC(N)C(=O)NC(CO)C(=O)NC(CO)C(=O)NC(CCCNC(=N)N)C(O)CC(=O)OCC1=C(C(=O)O)N2C(=O)C(NC=O)(NC(=O)CCCC(N)C(=O)O)C2SC1 (stereo not drawn) [TAN-592C] | 29 mm |

system: cephalosporinase; assay: β-lactamase stability test, growth inhibition zone with cephalosporinase; format: cell-based; details: cephalosporinase added; test organism Escherichia coli PG8; drug 100 μg/ml; nutrient agar pH 7.0
From the text: as §1

| Compound | diameter of growth inhibition zone |
| --- | --- |
| CC(N)C(=O)NC(CO)C(=O)NC(CO)C(=O)NC(CCCNC(=N)N)C(O)CC(=O)OCC1=C(C(=O)O)N2C(=O)C(NC=O)(NC(=O)CCCC(N)C(=O)O)C2SC1 (stereo not drawn) [TAN-592C] | 29 mm |
